This test concerns Plasmodium berghei. The test is described as follows: Luciferase/luciferin-expressing antifolate-resistant parasites were used to infect a culture of HepG2 cells that were pre-incubated with compounds. Infected hepatocytes emit light due to the luciferase reaction. Assay results are presented as the percent inhibition of light emission compared to control. […]. The format is functional. The note with it: sporozoite; for IC90: read-out: LUCIFERASE INFECTION ASSAY - IC90.

Setting [1] is: read-out: LUCIFERASE INFECTION ASSAY - IC50.

Turning to `N#C/C(=N\Nc1cccc(Cl)c1Cl)C(N)=S`, the IC90 was above 12.1 µM. Besides, the IC50 (PBLUC_HILL_SLOPE 7.41, PBLUC_R_SQUARED 0.441, read-out: LUCIFERASE INFECTION ASSAY - IC50) was above 12.1 µM.

Regarding `Cc1cccc(N2CCN(C(=O)c3nn(-c4ccccc4)c(=O)c4ccccc34)CC2)c1C`, the IC90 is above 10 µM. The IC50 under setting [1] is above 10 µM.

On to `COc1ccc(-[n+]2c(C)cn3c2CCc2ccccc2-3)cc1`, for which the IC90 was 3.96 µM. In addition, the IC50 (HEPG2TOX_HILL_SLOPE 1.53, HEPG2TOX_R_SQUARED 0.982, PBLUC_HILL_SLOPE 13.1, PBLUC_R_SQUARED 0.299, read-out: LUCIFERASE INFECTION ASSAY - IC50) worked out at 3.35 µM.

Take `Nc1ccc(-c2cnc3ccc(Cc4ccc(F)cc4)nn23)cn1`: the IC90 was 0.455 µM. Moreover, the IC50 (HEPG2TOX_HILL_SLOPE 2.46, HEPG2TOX_R_SQUARED 0.531, PBLUC_HILL_SLOPE 14.2, PBLUC_R_SQUARED 0.359, read-out: LUCIFERASE INFECTION ASSAY - IC50) was 0.39 µM.

On to `COc1ccc(NS(=O)(=O)c2cccc(C(=O)Nc3ncc(C)s3)c2)cc1Br`, for which the concentration for an effect of 90% (IC90) worked out at 4.59 µM. Also, the IC50 (HEPG2TOX_HILL_SLOPE 1.95, HEPG2TOX_R_SQUARED 0.754, PBLUC_HILL_SLOPE 9.08, 8.50, PBLUC_R_SQUARED 0.373, 0.408, read-out: LUCIFERASE INFECTION ASSAY - IC50) stood at 5.79 µM.

`Cc1cc(Cl)ccc1S(=O)(=O)N(Cc1ccncc1)C1CC1`: the IC90 turned out to be 7.99 µM. The half-maximal inhibitory concentration (IC50) (PBLUC_HILL_SLOPE 1.42, PBLUC_R_SQUARED 0.462, read-out: LUCIFERASE INFECTION ASSAY - IC50) is 1.69 µM.

Turning to `Cc1cccc(NC(=S)Nc2cn(-c3ccccc3)nc2-c2ccc(Br)cc2)c1C`, the IC90 is above 10 µM. Further, under “FFLUC_HILL_SLOPE 12, FFLUC_R_SQUARED 0.538, PBLUC_HILL_SLOPE 15.7, PBLUC_R_SQUARED 0.516, read-out: LUCIFERASE INFECTION ASSAY - IC50”, the IC50 stood at 9.52 µM.

As to `Cc1cccc(-c2nc3c(c(SCCN4CCCC4)n2)COC(C)(C)C3)c1`, the IC90 is above 8.6 µM. In addition, the IC50 under setting [1] was above 8.6 µM.

For the compound `O=[N+]([O-])c1cccc(-c2csc(-n3nccc3C(F)(F)F)n2)c1`, the IC90 is above 10 µM. Further, under setting [1], the concentration for half-maximal inhibition (IC50) is above 10 µM.

For the compound `CC1CN(C(=O)c2ccc(CN3C(=O)CNC3=O)cc2)CCO1` (configuration not stated), the IC90 is above 10 µM. In addition, the IC50 under setting [1] is above 10 µM.

With `CS(=O)(=O)Nc1ccc(-c2csc(Nc3ccccn3)n2)cc1`, the IC90 turned out to be 9.68 µM. Where the note is “HEPG2TOX_HILL_SLOPE 3.13, HEPG2TOX_R_SQUARED 0.99, PBLUC_HILL_SLOPE 12.3, PBLUC_R_SQUARED 0.0453, read-out: LUCIFERASE INFECTION ASSAY - IC50”, the 50% inhibitory concentration (IC50) was determined as 8.1 µM.

Regarding `Clc1cccc(-c2cc3[nH]c(NCc4ccccc4)nc3cn2)c1`, the concentration for an effect of 90% (IC90) is above 10 µM. In addition, under setting [1], the IC50 was above 10 µM.

For the compound `O=C(Nc1ccc(-c2nc3ccccc3[nH]2)cc1)C1CCC1`, the IC90 was above 10 µM. For the same compound, the IC50 (FFLUC_HILL_SLOPE 0.826, FFLUC_R_SQUARED 0.895, PBLUC_HILL_SLOPE 0.293, PBLUC_R_SQUARED 0.545, read-out: LUCIFERASE INFECTION ASSAY - IC50) came out at 0.543 µM.

In the case of `Cc1cc(C(=O)Nc2ccc(Cl)cc2)c(C)n1-c1ccccc1`, the IC90 came out at 0.729 µM. Besides, under “PBLUC_HILL_SLOPE 1.26, PBLUC_R_SQUARED 0.88, read-out: LUCIFERASE INFECTION ASSAY - IC50”, the 50% inhibitory concentration (IC50) came to 0.128 µM.

For the compound `CC(C)(C)c1ccc(C(O)c2nc(C(=O)NC3CC3)cs2)cc1` (configuration not stated), the IC90 stood at 1.29 µM. For the same compound, the IC50 (HEPG2TOX_HILL_SLOPE 1.09, HEPG2TOX_R_SQUARED 0.894, PBLUC_HILL_SLOPE 10.5, PBLUC_R_SQUARED 0.569, read-out: LUCIFERASE INFECTION ASSAY - IC50) is 1.05 µM.

As to `CCN1C(=O)N(C2Cc3ccccc3C2)C(=O)C12CCN(Cc1ccc(-c3ccco3)cc1)CC2`, the IC90 was above 7.03 µM. For the same compound, the 50% inhibitory concentration (IC50) (PBLUC_HILL_SLOPE 11.2, PBLUC_R_SQUARED 0.677, read-out: LUCIFERASE INFECTION ASSAY - IC50) is 6.46 µM.

`COc1ccccc1N(Cc1ccccc1)S(=O)(=O)c1cccc(C(=O)NC2CC(C)(C)NC(C)(C)C2)c1`: the IC90 came out at 9.9 µM. For the same compound, where the note is “PBLUC_HILL_SLOPE 145, PBLUC_R_SQUARED 0.235, read-out: LUCIFERASE INFECTION ASSAY - IC50”, the IC50 was 9.75 µM.

As to `O=C(Nc1nc(-c2ccccn2)cs1)C1CCCN(C(=O)c2ccc(Cl)cc2)C1` (configuration not stated), the IC90 was above 10 µM. The IC50 (FFLUC_HILL_SLOPE 0.539, FFLUC_R_SQUARED 0.289, HEPG2TOX_HILL_SLOPE 0.153, HEPG2TOX_R_SQUARED 0.318, read-out: LUCIFERASE INFECTION ASSAY - IC50) is above 10 µM.

With `O=C(CSc1nnc(-c2c[nH]c3ccccc23)n1C1CC1)NC1CCN(Cc2ccccc2)C1` (configuration not stated), the IC90 was determined as 8.82 µM. Also, the IC50 (PBLUC_HILL_SLOPE 3.03, PBLUC_R_SQUARED 0.422, read-out: LUCIFERASE INFECTION ASSAY - IC50) was found to be 4.27 µM.

With `O=C(NCc1ccccc1)/C(=C/c1cn(-c2ccccc2)nc1-c1cccs1)c1nc2ccccc2[nH]1`, the IC90 was 9.82 µM. Under “PBLUC_HILL_SLOPE 3.73, PBLUC_R_SQUARED 0.245, read-out: LUCIFERASE INFECTION ASSAY - IC50”, the IC50 was 5.45 µM.

As to `Cc1nnsc1-c1onc(C)c1C(=O)Nc1cc(Cl)cc(Cl)c1`, the IC90 was above 8.94 µM. The IC50 (HEPG2TOX_HILL_SLOPE 2.99, HEPG2TOX_R_SQUARED 0.625, PBLUC_HILL_SLOPE 10.3, PBLUC_R_SQUARED 0.237, read-out: LUCIFERASE INFECTION ASSAY - IC50) is 8.32 µM.

In the case of `Cc1cc(NC(=S)NNC(=O)c2cccnc2Oc2ccccc2)ccc1Br`, the IC90 was above 7.22 µM. Also, under setting [1], the IC50 is above 7.22 µM.

In the case of `FC(F)Oc1ccccc1/C=N/n1c(-c2ccc3c(c2)OCCO3)cs/c1=N\CC1CCCO1` (configuration not stated), the IC90 was above 10 µM. In addition, the IC50 under setting [1] was above 10 µM.

Consider `Cc1ccc(CNc2ncnc3sccc23)cc1`, for which the IC90 is above 10 µM. Moreover, the IC50 (HEPG2TOX_HILL_SLOPE 1.53, HEPG2TOX_R_SQUARED 0.949, PBLUC_HILL_SLOPE 1.13, PBLUC_R_SQUARED 0.759, read-out: LUCIFERASE INFECTION ASSAY - IC50) came out at 3.63 µM.

As to `CCOC(=O)c1ccc(N2CCN(C(C)c3nc(C(C)C)no3)CC2)nc1` (configuration not stated), the IC90 is above 10 µM. The IC50 (HEPG2TOX_HILL_SLOPE 2.09, HEPG2TOX_R_SQUARED 0.987, PBLUC_HILL_SLOPE 1.97, PBLUC_R_SQUARED 0.365, read-out: LUCIFERASE INFECTION ASSAY - IC50) was found to be 4.25 µM.

Take `O=C(NC(=O)c1csnn1)Nc1cc(C(F)(F)F)cc(C(F)(F)F)c1`: the IC90 was determined as 2.08 µM. The IC50 (FFLUC_HILL_SLOPE 15.9, FFLUC_R_SQUARED 0.485, HEPG2TOX_HILL_SLOPE 1.3, HEPG2TOX_R_SQUARED 0.92, PBLUC_HILL_SLOPE 2.07, PBLUC_R_SQUARED 0.679, read-out: LUCIFERASE INFECTION ASSAY - IC50) was 0.72 µM.

On to `COc1ccccc1CNC(=O)NC(C)c1ccc(Cl)cc1Cl` (configuration not stated), for which the IC90 was above 10 µM. Moreover, the IC50 under setting [1] is above 10 µM.

With `CN(Cc1nc2ccccc2s1)C(=O)c1cc(-c2ccccc2)c(N2CCOCC2)s1`, the IC90 is above 10 µM. Further, the IC50 under setting [1] is above 10 µM.

`CNc1nc2cnc(Nc3ccc(F)c(Cl)c3)cc2n1-c1cccc(C(F)(F)F)c1`: the concentration for an effect of 90% (IC90) is above 10 µM. The IC50 under setting [1] is above 10 µM.

On to `O=C(Nc1cc(C(F)(F)F)cc(C(F)(F)F)c1)Nc1sccc1Cl`, for which the 90% effect concentration (IC90) came out at 2.93 µM. The half-maximal inhibitory concentration (IC50) (HEPG2TOX_HILL_SLOPE 3.73, HEPG2TOX_R_SQUARED 0.682, PBLUC_HILL_SLOPE 3.61, PBLUC_R_SQUARED 0.656, read-out: LUCIFERASE INFECTION ASSAY - IC50) stood at 1.59 µM.

Consider `CC/C=C1/CC(=O)N(c2ccc(OC(C)=O)cc2)C1=O`, for which the IC90 is above 12.1 µM. In addition, under setting [1], the IC50 was above 12.1 µM.

As for `Cc1cccc(Nc2ccccc2C(=O)OCC(=O)Nc2cccc(C#N)c2)c1C`, the IC90 is above 10 µM. For the same compound, the IC50 (HEPG2TOX_HILL_SLOPE 6.86, HEPG2TOX_R_SQUARED 0.37, PBLUC_HILL_SLOPE 1.78, PBLUC_R_SQUARED 0.801, read-out: LUCIFERASE INFECTION ASSAY - IC50) came to 3.16 µM.

Turning to `O=C(NCC(c1ccco1)N1CCCC1)c1ccc(Cl)c(S(=O)(=O)N2CCc3ccccc32)c1` (configuration not stated), the IC90 was above 10 µM. Moreover, the IC50 (FFLUC_HILL_SLOPE 10.9, FFLUC_R_SQUARED 0.158, HEPG2TOX_HILL_SLOPE 3.24, HEPG2TOX_R_SQUARED 0.613, PBLUC_HILL_SLOPE 5.35, PBLUC_R_SQUARED 0.563, read-out: LUCIFERASE INFECTION ASSAY - IC50) came out at 7.08 µM.

As for `CC1CCN(S(=O)(=O)c2ccc(C(=O)NCc3cccc(C(F)(F)F)c3)cc2)CC1`, the IC90 is above 10 µM. Besides, under “FFLUC_HILL_SLOPE 13.2, FFLUC_R_SQUARED 0.207, read-out: LUCIFERASE INFECTION ASSAY - IC50”, the IC50 is above 10 µM.

`CCN(CC)S(=O)(=O)N1CCN(C(=O)c2[nH]nc3ccccc23)CC1`: the IC90 was determined as 3.63 µM. In addition, under “PBLUC_HILL_SLOPE 2.28, PBLUC_R_SQUARED 0.575, read-out: LUCIFERASE INFECTION ASSAY - IC50”, the IC50 worked out at 1.39 µM.

As for `COCCOc1ccc(C(F)(F)F)cc1NC(=O)COC(=O)c1ccc2[nH]c3c(c2c1)CCCC3`, the IC90 is above 10 µM. For the setting “FFLUC_HILL_SLOPE 10.4, FFLUC_R_SQUARED 0.848, HEPG2TOX_HILL_SLOPE 1.66, HEPG2TOX_R_SQUARED 0.868, PBLUC_HILL_SLOPE 2.48, PBLUC_R_SQUARED 0.755, read-out: LUCIFERASE INFECTION ASSAY - IC50”, the half-maximal inhibitory concentration (IC50) was 4.17 µM.

In general, IC50 refers to the point on the concentration scale where inhibition reaches its midpoint. The term IC90 denotes the concentration at which the effect reaches the 90% level.

Values taken from ChEMBL document CHEMBL4483862, “Open-source discovery of chemical leads for next-generation chemoprotective antimalarials” (2018).
